Paper PMC9354042, “Discovery of BRAF/HDAC Dual Inhibitors Suppressing Proliferation of Human Colorectal Cancer Cells” (Frontiers in Chemistry, 2022)

Legend:
HDAC6 = target: T1, HDAC6 (Homo sapiens, UniProt Q9UBN7); experiment: HDAC6 fluorescent-based enzymatic activity assay; assay type: biochemical; details: Table 1; read-out: Enzymatic IC50 HDAC6
T1 construct: purchased BPS Bioscience
T1 sequence (Q9UBN7 1-1215): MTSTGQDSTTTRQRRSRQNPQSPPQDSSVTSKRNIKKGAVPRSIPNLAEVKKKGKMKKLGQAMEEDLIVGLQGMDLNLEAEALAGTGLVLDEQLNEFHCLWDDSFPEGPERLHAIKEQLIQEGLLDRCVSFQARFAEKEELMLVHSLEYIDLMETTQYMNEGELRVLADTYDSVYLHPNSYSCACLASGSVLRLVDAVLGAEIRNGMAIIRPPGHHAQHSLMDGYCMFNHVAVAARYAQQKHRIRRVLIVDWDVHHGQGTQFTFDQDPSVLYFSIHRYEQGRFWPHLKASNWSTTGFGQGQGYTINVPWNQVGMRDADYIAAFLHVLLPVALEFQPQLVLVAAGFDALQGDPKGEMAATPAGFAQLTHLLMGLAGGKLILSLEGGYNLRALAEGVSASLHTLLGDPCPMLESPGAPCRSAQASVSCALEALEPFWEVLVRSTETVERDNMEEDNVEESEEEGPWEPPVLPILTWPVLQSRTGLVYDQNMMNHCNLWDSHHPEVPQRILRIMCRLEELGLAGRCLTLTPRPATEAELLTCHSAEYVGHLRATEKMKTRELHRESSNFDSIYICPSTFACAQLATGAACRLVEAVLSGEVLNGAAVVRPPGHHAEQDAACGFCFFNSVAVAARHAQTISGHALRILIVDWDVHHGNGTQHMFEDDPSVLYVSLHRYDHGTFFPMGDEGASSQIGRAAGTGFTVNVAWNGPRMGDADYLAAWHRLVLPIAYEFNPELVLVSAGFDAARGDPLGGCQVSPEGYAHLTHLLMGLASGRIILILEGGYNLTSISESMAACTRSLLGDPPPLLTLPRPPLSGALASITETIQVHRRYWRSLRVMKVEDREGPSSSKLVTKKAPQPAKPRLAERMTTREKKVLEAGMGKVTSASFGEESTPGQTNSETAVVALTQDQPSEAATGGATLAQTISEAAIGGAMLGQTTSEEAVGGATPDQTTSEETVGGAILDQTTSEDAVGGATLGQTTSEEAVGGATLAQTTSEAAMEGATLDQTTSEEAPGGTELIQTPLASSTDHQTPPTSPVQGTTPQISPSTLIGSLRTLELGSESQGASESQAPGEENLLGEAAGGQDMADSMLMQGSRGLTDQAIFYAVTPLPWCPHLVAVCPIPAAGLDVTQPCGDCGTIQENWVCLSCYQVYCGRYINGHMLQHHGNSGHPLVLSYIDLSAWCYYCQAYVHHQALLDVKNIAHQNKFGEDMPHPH
Protocol: (§1) The purified recombinant Human HDACs and their corresponding substrates were purchased from BPS Bioscience (BPS Bioscience Inc., United States). The assays were carried out in a 384-well format using the BPS fluorescent–based HDAC activity assay according to the manufacturer’s protocol. In brief, […] of the HDAC reaction mixture was composed of HDAC assay buffer, […] BSA, serial diluted test compounds, appropriate concentration of HDACs, and […] fluorogenic substrate, the mixture was incubated at 37°C for 60 min, and then stopped by the addition of developer containing trypsin and TSA. After 20 min of incubation, the fluorescence was detected at the excitation wavelength of 360 nm and the emission wavelength of 460 nm using the EnVision Multilabel Reader (PerkinElmer Inc., United States). The analytical software, GraphPad Prism 5.0 (GraphPad Software, Inc., United States) was used to generate IC50 value via non-linear regression analysis.

HDAC1 = target: T2, HDAC1 (Homo sapiens, UniProt Q13547); experiment: HDAC1 fluorescent-based enzymatic activity assay; assay type: biochemical; details: Table 1; read-out: Enzymatic IC50 HDAC1
T2 construct: purchased BPS Bioscience
Protocol: as §1

HCT116 cells = experiment: Antiproliferation CCK-8 assay, HCT116; assay type: cell-based; details: Homo sapiens, HCT-116; CCK-8, 72 h, HCT116 (wild-type BRAF); means of three independent experiments; read-out: Cellular IC50 HCT116
Protocol: (§2) HCT116 and HT-29 cells were obtained from the Shanghai Cell Bank (Type Culture Collection (TCC), Chinese Academy of Sciences) and cultured in DMEM (10–013-CVR, corning) supplemented with 10% fetal bovine serum (04-001-1A, BI), 1% penicillin/streptomycin (03-031-1B, BI).
(§3) The cells in the logarithmic phase were placed in 96-well plates (∼3000 cells/well) in a complete medium. After incubation overnight, the cells were exposed to the corresponding compounds or vehicle control at the indicated concentration for a further 72 h. Cell proliferation was evaluated using Cell Counting Kit 8 (CCK8, CK04, Dojindo Laboratories, Kumamoto, Japan). OD450 and OD650 were determined using a microplate reader. Absorbance rate (A) for each well was calculated as OD450 −OD650. […] Each IC50 value is expressed as mean ± SD. As is the absorbance rate of the test compound well, Ac is the absorbance rate of the well without either the cell or test compound, and Ab is the absorbance rate of the well with the cell and vehicle control.

BRAF^V600E = target: T3, BRAF^V600E (Homo sapiens, UniProt P15056, V600E); experiment: BRAF V600E enzymatic activity, FRET-based Z'-Lyte kinase assay; assay type: biochemical
T3 construct: purchased Invitrogen
Protocol: The experiments were performed according to the instructions of the manufacturer. […] For each assay, 10 μl kinase reactions were added to 384-well plate, mixed thoroughly, and incubated for 1 hour at room temperature. Then, a 5 μl development solution was added to each well and the plate was incubated for another 1 h at room temperature. Then, a 5 μl stop reagent was loaded to stop the reaction. For the control setting, a 5 μl phospho-peptide solution instead of kinase/peptide mixture was used as 100% phosphorylation control. […] The plate was measured on an EnVision Multilabel Reader (Perkin-Elmer). Curve fitting and data presentations were performed using GraphPad Prism, version 5.0. Every experiment was repeated at least two times.

HT-29 cells = experiment: Antiproliferation CCK-8 assay, HT-29; assay type: cell-based; details: Homo sapiens; CCK-8, 72 h, HT-29 (BRAF^V600E); means of three independent experiments; read-out: Cellular IC50 HT-29
Protocol: as §2, §3

T3 sequence (P15056 whole entry V600E): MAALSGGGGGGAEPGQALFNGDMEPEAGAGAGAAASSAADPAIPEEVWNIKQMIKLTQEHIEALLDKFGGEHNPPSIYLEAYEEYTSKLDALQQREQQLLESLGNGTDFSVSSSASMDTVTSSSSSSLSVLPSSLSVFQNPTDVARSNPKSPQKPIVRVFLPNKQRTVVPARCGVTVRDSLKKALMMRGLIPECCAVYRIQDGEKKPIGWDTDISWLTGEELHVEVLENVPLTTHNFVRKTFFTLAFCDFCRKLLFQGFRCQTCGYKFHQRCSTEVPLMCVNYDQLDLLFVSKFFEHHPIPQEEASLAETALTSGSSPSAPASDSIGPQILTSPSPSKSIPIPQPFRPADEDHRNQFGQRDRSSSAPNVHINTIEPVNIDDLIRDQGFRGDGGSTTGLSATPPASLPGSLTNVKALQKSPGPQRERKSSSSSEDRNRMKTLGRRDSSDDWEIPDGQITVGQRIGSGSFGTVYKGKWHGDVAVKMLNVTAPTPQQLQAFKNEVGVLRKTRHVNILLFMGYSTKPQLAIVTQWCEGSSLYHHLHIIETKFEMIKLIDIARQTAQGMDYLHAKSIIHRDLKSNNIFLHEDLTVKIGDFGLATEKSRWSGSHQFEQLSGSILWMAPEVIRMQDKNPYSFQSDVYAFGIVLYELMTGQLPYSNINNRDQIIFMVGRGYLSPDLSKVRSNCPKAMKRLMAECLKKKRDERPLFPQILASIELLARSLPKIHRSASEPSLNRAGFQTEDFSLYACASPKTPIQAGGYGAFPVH
T2 sequence (Q13547 whole entry): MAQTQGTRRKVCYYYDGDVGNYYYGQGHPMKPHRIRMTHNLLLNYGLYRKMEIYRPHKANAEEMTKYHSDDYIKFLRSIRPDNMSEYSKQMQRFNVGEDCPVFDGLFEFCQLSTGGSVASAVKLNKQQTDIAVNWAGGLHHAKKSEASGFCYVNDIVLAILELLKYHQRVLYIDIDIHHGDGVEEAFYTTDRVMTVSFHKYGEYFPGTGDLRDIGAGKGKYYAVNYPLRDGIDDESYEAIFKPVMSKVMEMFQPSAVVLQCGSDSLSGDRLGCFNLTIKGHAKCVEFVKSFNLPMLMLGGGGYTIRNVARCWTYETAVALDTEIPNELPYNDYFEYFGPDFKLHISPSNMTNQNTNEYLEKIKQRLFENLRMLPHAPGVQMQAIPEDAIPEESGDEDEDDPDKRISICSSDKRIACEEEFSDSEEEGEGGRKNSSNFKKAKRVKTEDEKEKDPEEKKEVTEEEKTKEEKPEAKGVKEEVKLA

SMILES | IC50 (HDAC6) | IC50 (HDAC1) | IC50 (HCT116 cells) | IC50 (BRAF^V600E) | IC50 (HT-29 cells)
CC(C)(C)c1nc(-c2cccc(NS(=O)(=O)c3c(F)cccc3F)c2F)c(-c2ccnc(NCCCCCC(=O)NO)n2)s1 [14a] | 1210 nM | 679 nM | 3 µM | 3.25 nM | 1000 nM
CC(C)(C)c1nc(-c2cccc(NS(=O)(=O)c3c(F)cccc3F)c2F)c(-c2ccnc(NCCCCCCCC(=O)NO)n2)s1 [14c, 8-{[4-(2-(Tert-Butyl)-4-(3-(2,6-Difluorophenylsulfonamido)-2-Fluorophenyl)Thiazol-5-yl)Pyrimidin-2-yl]Amino}-N-Hydroxyoctanamide] | 128 nM | 312 nM | 4.47 µM | 2.27 nM | 880 nM
CC(C)(C)c1nc(-c2cccc(NS(=O)(=O)c3c(F)cccc3F)c2F)c(-c2ccnc(NCCCCCCCCC(=O)NO)n2)s1 [14d, 9-{[4-(2-(Tert-Butyl)-4-(3-(2,6-Difluorophenylsulfonamido)-2-Fluorophenyl)Thiazol-5-yl)Pyrimidin-2-yl]Amino}-N-Hydroxynonanamide] | 322 nM | 765 nM | 3.66 µM | 3.82 nM | 480 nM
Cc1nc(-c2cccc(NS(=O)(=O)c3c(F)cccc3F)c2F)c(-c2ccnc(NCCCCCCC(=O)NO)n2)s1 [14e, 7-{[4-(4-(3-(2,6-Difluorophenylsulfonamido)-2-Fluorophenyl)-2-Methylthiazol-5-yl)Pyrimidin-2-yl]Amino}-N-Hydroxyheptanamide] | 14.6 nM | 42.2 nM | 7.53 µM | 3.5 nM | 6390 nM
CCc1nc(-c2cccc(NS(=O)(=O)c3c(F)cccc3F)c2F)c(-c2ccnc(NCCCCCCC(=O)NO)n2)s1 [14f, 7-{[4-(4-(3-(2,6-Difluorophenylsulfonamido)-2-Fluorophenyl)-2-Ethylthiazol-5-yl)Pyrimidin-2-yl]Amino}-N-Hydroxyheptanamide] | 26.5 nM | 61.3 nM | 4.27 µM | 1.66 nM | 1270 nM
CC(C)c1nc(-c2cccc(NS(=O)(=O)c3c(F)cccc3F)c2F)c(-c2ccnc(NCCCCCCC(=O)NO)n2)s1 [14g, 7-{[4-(4-(3-(2,6-Difluorophenylsulfonamido)-2-Fluorophenyl)-2-Isopropylthiazol-5-yl)Pyrimidin-2-yl]Amino}-N-Hydroxyheptanamide] | 30 nM | 130 nM | 2.68 µM | 1.51 nM | 990 nM
O=C(CCCCCCNc1nccc(-c2sc(C3CC3)nc2-c2cccc(NS(=O)(=O)c3c(F)cccc3F)c2F)n1)NO [14h, 7-{[4-(2-Cyclopropyl-4-(3-(2,6-Difluorophenylsulfonamido)-2-Fluorophenyl)Thiazol-5-yl)Pyrimidin-2-yl]Amino}-N-Hydroxyheptanamide] | 27.1 nM | 49.8 nM | 4.71 µM | 1.31 nM | 2210 nM
CCCc1nc(-c2cccc(NS(=O)(=O)c3c(F)cccc3F)c2F)c(-c2ccnc(NCCCCCCC(=O)NO)n2)s1 [14i, 7-{[4-(4-(3-(2,6-Difluorophenylsulfonamido)-2-Fluorophenyl)-2-Propylthiazol-5-yl)Pyrimidin-2-yl]Amino}-N-Hydroxyheptanamide] | 64.6 nM | 105 nM | 3.08 µM | 1.07 nM | 970 nM
CC(C)(C)c1nc(-c2cccc(NS(C)(=O)=O)c2F)c(-c2ccnc(NCCCCCCC(=O)NO)n2)s1 [21a, 7-{[4-(2-(Tert-Butyl)-4-(2-Fluoro-3-(Methylsulfonamido)Phenyl)Thiazol-5-yl)Pyrimidin-2-yl]Amino}-N-Hydroxyheptanamide] | 22.2 nM | 113 nM | 8.52 µM | 1.03 nM | 5020 nM
CCCS(=O)(=O)Nc1cccc(-c2nc(C(C)(C)C)sc2-c2ccnc(NCCCCCCC(=O)NO)n2)c1F [21b, 7-{[4-(2-(Tert-Butyl)-4-(2-Fluoro-3-(Propylsulfonamido)Phenyl)Thiazol-5-yl)Pyrimidin-2-yl]Amino}-N-Hydroxyheptanamide] | 72.1 nM | 432 nM | 5.44 µM | 1.71 nM | 780 nM
Cc1nc(-c2cccc(NS(C)(=O)=O)c2F)c(-c2ccnc(NCCCCCCC(=O)NO)n2)s1 [21d, 7-{[4-(4-(2-Fluoro-3-(Methylsulfonamido)Phenyl)-2-Methylthiazol-5-yl)Pyrimidin-2-yl]Amino}-N-Hydroxyheptanamide] | 21.8 nM | 71 nM | > 10 µM | 258 nM | > 10000 nM
CCS(=O)(=O)Nc1cccc(-c2nc(C)sc2-c2ccnc(NCCCCCCC(=O)NO)n2)c1F [21e, 7-{[4-(4-(3-(Ethylsulfonamido)-2-Fluorophenyl)-2-Methylthiazol-5-yl)Pyrimidin-2-yl]Amino}-N-Hydroxyheptanamide] | 18.8 nM | 52.2 nM | 9.15 µM | 107 nM | > 10000 nM
Cc1nc(-c2cccc(NS(=O)(=O)c3ccccc3)c2F)c(-c2ccnc(NCCCCCCC(=O)NO)n2)s1 [21f, 7-{[4-(4-(2-Fluoro-3-(Phenylsulfonamido)Phenyl)-2-Methylthiazol-5-yl)Pyrimidin-2-yl]Amino}-N-Hydroxyheptanamide] | 18.7 nM | 49.4 nM | 4.41 µM | 3.92 nM | 4960 nM
